In patent US11714087B2, “Treatment of necroptosis” (priority 2018, dated 2023):

How the values were obtained:
Type in all cases: in vivo, Sprague-Dawley rats
[1] = test system: RIPK3; assay: Rodent ACLF model (BDL+LPS rats): plasma RIPK3 by ELISA; conditions: BDL+NEC-1+LPS vs BDL+Vehicle+LPS
Method: (§1) The animal model of ACLF utilised in this study was developed using a well-characterized rodent model of advanced fibrosis induced by bile duct ligation (BDL) with ACLF induced in this model by infusion of LPS. Bile duct ligation, housing, and care of the animals were performed as previously described. Four groups of adult male Sprague-Dawley rats were studied (n=4-8 in each group). The animals were studied 4 weeks after either sham-operation or BDL. The animals in each group were terminated 3-h after administration of LPS (Klebsiella pneumoniae) (0.3 mg/kg/hr, intravenously) or saline under terminal anaesthesia.
(§2) Necrostatin 1 (Nec-1, Calbiochem, Sigma Aldrich, UK) was prepared as follows. Nec-1 was redissolved in N-2 methyl-pyrrolidone (NMP) to make a 200 mg/ml stock solution which was then further diluted to an intermediate concentration of 40 mg/ml in NMP. […]
Blood was withdrawn from the carotid line and immediately placed in heparin or EDTA-containing tubes (until full exsanguination), centrifuged (3,500 rpm for 10 min at 4° C.) and the plasma was stored at −80° C. for later use in biochemistry and RIPK3 quantification [Rat RIPK3 (Receptor-interacting serine/threonineprotein kinase) ELISA kit, Cat. No. ER0446, Wuhan Fine Biological Technology Co., Ltd., China]. […]

[2] = test system: Caspase 8; assay: Liver Caspase 8 activity (Caspase-Glo) in rodent ACLF model; conditions: BDL+NEC-1+LPS group; IQR 313.5-414.3; p=0.020 compared to BDL
Method: as §1
(§3) 4. BDL animals administered LPS and Nec-1; This group of BDL rats received an i.p. injection of 3.3 mg/kg Nec-1 followed, by an i.p injection of LPS, 3 hr later.
(§4) Liver Caspase 3/7 and 8 activities were measured using Caspase-Glo assay kits (Promega). Briefly, cytosolic extracts from liver tissue were obtained by homogenisation in hypotonic extraction buffer [10 mM HEPES, 0.5% Triton X-100, 2 mM DTT, protease inhibitor cocktail (Sigma)] using a TissueLyser LT sytem (Qiagen, UK). […] After quantification using BCA™ Protein Assay Kit (Pierce, UK), protein concentrations of supernatant were adjusted to 1 mg/ml with extraction buffer and stored at −80° C. […] Luminescence was measured using a plate-reading luminometer (FLUOstar Omega, BMG Labtech, UK).

[3] = test system: Caspase 3/7; assay: Liver Caspase 3/7 activity (Caspase-Glo) in rodent ACLF model; conditions: BDL+NEC-1+LPS group; IQR 1640-3890; p=0.626 compared to BDL
Method: as §1, §3, §4

[4] = Rodent ACLF model (BDL+LPS rats): plasma biochemistry, histone 3 and brain water
Method: as §1
Necrostatin 1 (Nec-1, Calbiochem, Sigma Aldrich, UK) was prepared as follows. Nec-1 was redissolved in N-2 methyl-pyrrolidone (NMP) to make a 200 mg/ml stock solution which was then further diluted to an intermediate concentration of 40 mg/ml in NMP. The 40 mg/ml solution was finally diluted to a working concentration of 1 mg/ml in a solution of 30% (2-hydroxypropyl) β-cyclodextrin (Sigma, Cat No H107)/0.5% Citric acid.
as §3
Animals were sacrificed 3 hours after LPS.
Blood was withdrawn from the carotid line and immediately placed in heparin or EDTA-containing tubes (until full exsanguination), centrifuged (3,500 rpm for 10 min at 4° C.) and the plasma was stored at −80° C. for later use in biochemistry and RIPK3 quantification [Rat RIPK3 (Receptor-interacting serine/threonineprotein kinase) ELISA kit, Cat. No. ER0446, Wuhan Fine Biological Technology Co., Ltd., China]. Organs were harvested and either fixed in formalin for histological assessment or snap frozen.

[5] = test system: liver and kidney sections; assay: Rodent ACLF model (BDL+LPS rats): TUNEL staining of liver and kidney sections (cell death)
Method: as §1, §2
(§5) Terminal deoxynucleotidyl transferase biotin-dUTP nick end labeling (TUNEL) staining of deparaffinised and proteinase K-treated liver and kidney sections was performed using the In-Situ Cell Death Detection kit, POD (Roche, UK) as per manufacturer's protocol. […] Quantitative analysis of immunohistochemistry positive area was assessed by measuring optical density using FIJI Image J software.

[6] = target: T1, RIPK1 (Rattus norvegicus, UniProt D3ZYL0); assay: Rodent ACLF model (BDL+LPS rats): RIPK1 immunostaining of liver tissue; conditions: 3.3 mg/kg Nec-1 i.p. 3 hr before LPS, vs BDL+Vehicle+LPS, p=0.009
T1 construct: Representative images of liver tissue of sham, BDL, BDL+LPS and BDL+NEC-1+LPS stained for RIPK1; from tissue; host or cells: rat liver (BDL+LPS ACLF model)
T1 sequence (D3ZYL0 1-658): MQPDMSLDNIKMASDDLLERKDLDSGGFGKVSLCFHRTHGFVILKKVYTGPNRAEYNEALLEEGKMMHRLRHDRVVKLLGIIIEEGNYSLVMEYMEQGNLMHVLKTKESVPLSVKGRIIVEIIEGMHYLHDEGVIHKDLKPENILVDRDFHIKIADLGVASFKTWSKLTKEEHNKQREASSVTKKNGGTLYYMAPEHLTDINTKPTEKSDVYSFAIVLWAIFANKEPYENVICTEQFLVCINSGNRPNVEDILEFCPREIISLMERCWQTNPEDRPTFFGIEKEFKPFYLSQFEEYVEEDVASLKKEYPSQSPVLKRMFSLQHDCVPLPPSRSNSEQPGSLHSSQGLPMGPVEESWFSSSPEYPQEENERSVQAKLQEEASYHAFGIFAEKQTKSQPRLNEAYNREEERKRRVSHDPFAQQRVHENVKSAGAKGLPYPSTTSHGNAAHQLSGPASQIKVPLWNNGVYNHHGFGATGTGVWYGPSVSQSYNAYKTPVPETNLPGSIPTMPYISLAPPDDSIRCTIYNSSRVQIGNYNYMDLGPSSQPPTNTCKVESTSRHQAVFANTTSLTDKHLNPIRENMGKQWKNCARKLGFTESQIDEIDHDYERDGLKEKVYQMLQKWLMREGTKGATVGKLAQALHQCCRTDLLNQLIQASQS
Method: as §1, §2, §5

CN1C(=O)C(Cc2c[nH]c3ccccc23)NC1=S (stereo not drawn) [NEC-1, Necrostatin 1]
plasma RIPK3 levels [1]: reduced markedly | Caspase 8 activity in liver homogenates, median [2]: 326.5 RLU | Caspase 3/7 activity in liver homogenates, median [3]: 2857 RLU | plasma urea levels ([4]; BDL+NEC-1+LPS vs BDL+Vehicle+LPS, p=0.012): significant reduction | plasma albumin levels ([4]; BDL+NEC-1+LPS vs BDL+Vehicle+LPS, p=0.017): significantly higher | plasma creatinine ([4]; BDL+NEC-1+LPS vs BDL+Vehicle+LPS, p=0.020): significant reduction | plasma AST ([4]; BDL+NEC-1+LPS vs BDL+Vehicle+LPS, p=0.037): significantly lower | brain water content ([4]; BDL+NEC-1+LPS vs BDL+Vehicle+LPS, p=0.100): reduction in brain water content, although not statistically significant | circulating levels of histone 3 ([4]; NEC-1 treated group vs BDL+Vehicle+LPS, p=0.048): significant reduction in circulating levels of histone 3 | total cell death in the livers (TUNEL staining) ([5]; BDL+NEC-1+LPS vs BDL+Vehicle+LPS, p=0.001): significant reduction in total cell death | cell death in kidneys (TUNEL staining) ([5]; BDL+NEC-1+LPS vs BDL+vehicle+LPS, p=0.002): significant reduction in cell death | expression of RIPK1 in liver (immunostaining optical density) [6]: significantly decreased
